The source made the active and inactive calls. The rule behind the calls is not given here.
What was measured:
[1] = biological target: Serine/threonine-protein kinase mTOR (Homo sapiens) (UniProt P42345); assay: Inhibition of mTOR phosphorylation in human HCT116 cells after 24 hrs by Western blot method; format: cell-based
[2] = tested on: HCT-116; assay: Induction of apoptosis in human HCT116 cells assessed as late apoptotic cells after 24 hrs by annexin V-FITC/propidium iodide staining based flow cytometry; format: functional, cell-based
[3] = tested on: HCT-116; assay: Induction of apoptosis in human HCT116 cells assessed as necrotic cells at 10 uM after 24 hrs by annexin V-FITC/propidium iodide staining based flow cytometry (reference value: 3.9%); format: functional
[4] = tested on: HCT-116; assay: Growth inhibition of human HCT116 cells after 48 hrs by MTT assay; format: functional, cell-based; settings: HCT-116, 48 h
[5] = tested on: HCT-116; assay: Antimigratory activity against human HCT116 cells after 24 hrs by crystal violet staining based transwell assay; format: functional, cell-based
[6] = tested on: SMMC-7721; assay: Growth inhibition of human SMMC7721 cells after 48 hrs by MTT assay; format: functional, cell-based; settings: SMMC-7721, 48 h
[7] = tested on: HCT-116; assay: Downregulation of Bcl2 protein expression in human HCT116 cells up to 10 uM after 24 hrs by Western blot method; format: functional, cell-based
[8] = tested on: HCT-116; assay: Growth inhibition of human HCT116 cells at 2.5 to 7.5 uM after 24 hrs in presence of spermidine by MTT assay; format: functional, cell-based
[9] = tested on: CT26; assay: Induction of autophagy in mouse CT26 cells at 10 to 20 uM after 24 hrs in presence of autophagy inhibitor 3-MA by MDC staining based flow cytometry; format: functional, cell-based
[10] = tested on: HCT-116; assay: Decrease in spermidine level in human HCT116 cells at 2.5 to 10 uM after 24 hrs by G1321A fluorescence detector coupled HPLC analysis; format: functional, cell-based
[11] = tested on: CT26; assay: Induction of apoptosis in mouse CT26 cells assessed as necrotic cells at 10 uM after 24 hrs by annexin V-FITC/propidium iodide staining based flow cytometry (reference value: 4.36%); format: functional
[12] = tested on: HCT-116; assay: Induction of apoptosis in human HCT116 cells assessed as late apoptotic cells at 10 uM after 24 hrs in presence of pan-caspase inhibitor Z-VAD-FMK by annexin V-FITC/propidium iodide staining based flow cytometry (reference value: 2.03%); format: functional
[13] = tested on: Mus musculus; assay: Toxicity in Balb/c mouse implanted with mouse CT26 cells assessed as increase in liver weight at 1 mg/kg, iv for 14 consecutive days starting from day 8 post tumor implantation; format: organism-based; settings: in vivo
[14] = tested on: HCT-116; assay: Decrease in spermine level in human HCT116 cells at 2.5 to 10 uM after 24 hrs by G1321A fluorescence detector coupled HPLC analysis; format: functional, cell-based
[15] = tested on: HCT-116; assay: Induction of autophagy in human HCT116 cells at 5 to 20 uM after 24 hrs in presence of pan-caspase inhibitor Z-VAD-FMK by Lyso staining based flow cytometry; format: functional, cell-based
[16] = tested on: HCT-116; assay: Upregulation of cleaved caspase-3 protein expression in human HCT116 cells up to 10 uM after 24 hrs in presence of autophagy inhibitor 3-MA by Western blot method; format: functional, cell-based
[17] = tested on: HCT-116; assay: Induction of apoptosis in human HCT116 cells assessed as early apoptotic cells after 24 hrs by annexin V-FITC/propidium iodide staining based flow cytometry; format: functional, cell-based
[18] = tested on: CT26; assay: Antitumor activity against mouse CT26 cells implanted in Balb/c mouse assessed as solid tumor growth inhibition at 1 mg/kg, iv for 14 consecutive days measured on day 15 relative to control; format: functional; settings: 360 h, read-out: TGI
[19] = tested on: Mus musculus; assay: Toxicity in Balb/c mouse implanted with mouse CT26 cells assessed as increase in heart weight at 1 mg/kg, iv for 14 consecutive days starting from day 8 post tumor implantation; format: organism-based; settings: in vivo
[20] = tested on: HCT-116; assay: Induction of autophagy in human HCT116 cells at 1 to 20 uM after 24 hrs by Lyso staining based flow cytometry; format: functional, cell-based
[21] = tested on: CT26; assay: Induction of apoptosis in mouse CT26 cells assessed as live cells at 10 uM after 24 hrs in presence of autophagy inhibitor 3-MA by annexin V-FITC/propidium iodide staining based flow cytometry (reference value: 89.47%); format: functional
[22] = Drug uptake in human HCT116 cells by confocal microscopic method; format: ADME, cell-based; settings: hct-116
[23] = tested on: HCT-116; assay: Induction of apoptosis in human HCT116 cells assessed as early apoptotic cells at 10 uM after 24 hrs in presence of autophagy inhibitor 3-MA by annexin V-FITC/propidium iodide staining based flow cytometry (reference value: 4.1%); format: functional
[24] = tested on: CT26; assay: Antimetastatic activity against mouse CT26 cells implanted in Balb/c mouse assessed as inhibition of pulmonary metastasis nodules at 1 mg/kg, iv for 7 consecutive days starting from day 8 post tumor implantation measured on day 15 post tumor implantation relative to control; format: functional
[25] = tested on: HepG2; assay: Growth inhibition of human HepG2 cells after 48 hrs by MTT assay; format: functional, cell-based; settings: HepG2, 48 h
[26] = tested on: HCT-116; assay: Downregulation of beta-catenin protein expression in human HCT116 cells after 24 hrs by Western blot method; format: functional, cell-based
[27] = tested on: Mus musculus; assay: Toxicity in Balb/c mouse implanted with mouse CT26 cells assessed as increase in spleen weight at 1 mg/kg, iv for 7 consecutive days starting from day 8 post tumor implantation; format: organism-based; settings: in vivo
[28] = tested on: HCT-116; assay: Upregulation of p53 protein expression in human HCT116 cells after 24 hrs by Western blot method; format: functional, cell-based
[29] = tested on: HCT-116; assay: Downregulation of Akt protein expression in human HCT116 cells up to 10 uM after 24 hrs in presence of autophagy inhibitor 3-MA by Western blot method; format: functional, cell-based
[30] = tested on: CT26; assay: Induction of apoptosis in mouse CT26 cells assessed as early apoptotic cells after 24 hrs by annexin V-FITC/propidium iodide staining based flow cytometry; format: functional, cell-based
[31] = tested on: HCT-116; assay: Induction of apoptosis in human HCT116 cells after 24 hrs by acridine orange and ethidium bromide staining based high content screening analysis; format: functional, cell-based
[32] = tested on: CT26; assay: Induction of apoptosis in mouse CT26 cells assessed as late apoptotic cells at 10 uM after 24 hrs in presence of autophagy inhibitor 3-MA by annexin V-FITC/propidium iodide staining based flow cytometry (reference value: 2.26%); format: functional
[33] = tested on: HCT-116; assay: Induction of apoptosis in human HCT116 cells assessed as necrotic cells at 10 uM after 24 hrs in presence of pan-caspase inhibitor Z-VAD-FMK by annexin V-FITC/propidium iodide staining based flow cytometry (reference value: 3.9%); format: functional
[34] = tested on: HCT-116; assay: Induction of autophagy in human HCT116 cells at 5 to 20 uM after 24 hrs in presence of autophagy inhibitor 3-MA by MDC staining based flow cytometry; format: functional, cell-based
[35] = tested on: HCT-116; assay: Induction of autophagy in human HCT116 cells at 5 to 20 uM after 24 hrs in presence of pan-caspase inhibitor Z-VAD-FMK by MDC staining based flow cytometry; format: functional, cell-based
[36] = tested on: HCT-116; assay: Upregulation of LAMP2 protein expression in human HCT116 cells at 10 uM after 24 hrs by Western blot method; format: functional, cell-based
[37] = tested on: CT26; assay: Induction of apoptosis in mouse CT26 cells after 24 hrs by acridine orange and ethidium bromide staining based high content screening analysis; format: functional, cell-based
[38] = tested on: CT26; assay: Antimigratory activity against mouse CT26 cells after 24 hrs by crystal violet staining based transwell assay; format: functional, cell-based
[39] = tested on: CT26; assay: Induction of apoptosis in mouse CT26 cells assessed as early apoptotic cells at 10 uM after 24 hrs in presence of autophagy inhibitor 3-MA by annexin V-FITC/propidium iodide staining based flow cytometry (reference value: 3.91%); format: functional

With Cl.Cl.Cl.NCCCCNCCCCNCCCCN1C(=O)c2cccc3cccc1c23 the inhibition [1] was “Dose-dependent effect”, the Activity [2] was “Dose-dependent effect” and the Activity [3] was 2.97%. For the same molecule, the IC50 [4] was 5.72 µM, the Activity [5] was “Dose-dependent effect” and the IC50 [6] was 13.5 µM. The Activity [7] was “Active”, the “growth inhibition (GI)” value [8] was “inactive” and the Activity [9] was “inactive”. The Activity [10] was “Active”, the Activity [11] was 3.56% and the Activity [12] was 13.6%. For the same molecule, the Activity [13] was “Toxic”, the Activity [14] was “Active” and the Activity [15] was “inactive”. The Activity [16] was “inactive”, the Activity [17] was “Dose-dependent effect” and the inhibition in vivo at 1 mg/kg [18] was 46.9%. For the same molecule, the Activity [19] was “Toxic”, the Activity [20] was “Active” and the Activity [21] was 61.63%. The Drug uptake [22] was “Dose-dependent effect and Tde”, the Activity [23] was 17.3% and the inhibition in vivo at 1 mg/kg [24] was 82.5%. The IC50 [25] was 5.28 µM, the Activity [26] was “Dose-dependent effect” and the Activity [27] was “Toxic”. For the same molecule, the Activity [28] was “Dose-dependent effect”, the Activity [29] was “inactive” and the Activity [30] was “Dose-dependent effect”. For the same molecule, the Activity [31] was “Dose-dependent effect”, the Activity [32] was 6.59% and the Activity [33] was 8.07%. For the same molecule, the Activity [34] was “inactive”, the Activity [35] was “inactive” and the Activity [36] was “Active”. For the same molecule, the Activity [37] was “Dose-dependent effect”, the Activity [38] was “Dose-dependent effect” and the Activity [39] was 27.36%.

— ChEMBL document CHEMBL4130638, “Discovery of the Polyamine Conjugate with Benzo[ cd]indol-2(1 H)-one as a Lysosome-Targeted Antimetastatic Agent” (J Med Chem, 2018)
